This assay deals with HaCaT cells. Nature of the assay: Apoptosis assay (FITC Annexin V/PI) after ultraviolet irradiation. Type of assay: cell-based, human. To be noted: 2 h pretreatment, ultraviolet 50 mJ/cm^2, 48 hours, mean ± SEM. Here is the method: Four groups of NMuMG cells (i.e., a normal control group referred to as Normal Control Group 1-A, an ultraviolet control group referred to as UV Control Group 1-A, and two experimental groups referred to as Experimental Groups 1-A to 2-A) and four groups of HaCaT cells (i.e., a normal control group referred to as Normal Control Group 1-B, an ultraviolet control group referred to as UV Control Group 1-B, and two experimental groups referred to as Experimental Groups 1-B to 2-B), were prepared based on the procedure set forth in “Source and cultivation of cell lines” of “Experimental materials”. The cells in each group were cultivated using 5 mL of a corresponding medium shown in Table 1 and a 6-cm Petri dish in an incubator (37° C., 5% CO2) for 24 hours. […]
Subsequently, the stained cells were analyzed using BD Accuri™ C6 flow cytometry, in which cells that could be stained with FITC Annexin V but not with PI (i.e., FITC Annexin V positive and PI negative) represented cells that were induced with early apoptosis; cells stained with both FITC Annexin V and PI (i.e., FITC Annexin V positive and PI positive) represented cells that were induced with late apoptosis; and cells that could not be stained with FITC Annexin V and PI (i.e., FITC Annexin V negative and PI negative) represented viable cells. […]

Turning to `COc1cc(-c2oc3cc(O)cc(O)c3c(=O)c2O[C@@H]2O[C@H](CO)[C@@H](O)[C@H](O)[C@H]2O)ccc1O` [isorhamnetin-3-O-β-D-glucoside], the Apoptosis percentage is, setting by setting: (50 μM) 26.13 ± 7.26 %; (100 μM) 23 ± 2.19 %.

These data come from patent publication US9821002B2, “Method for alleviating radiation injury with isorhamnetin-3-O-β-D-glucoside” (Sinotai Oncology Associate., Ltd., priority 2015, dated 2017).
